Read-outs that look alike come from different tables or passages of the source.
Key:
XEN36 = assay: MIC of XEN36 for each antibiotic; type: cell-based, Staphylococcus aureus; conditions: S. aureus XEN36
S. aureus = assay: In vitro zone of inhibition assay of coated K-wires; type: cell-based, Staphylococcus aureus; conditions: any of the storage conditions vs freshly prepared coatings
Source text: A zone of inhibition assay was used as an additional assay to evaluate the in vitro release of antibiotic(s) from the composite coating. Tryptic soy agar bacterial plates were inoculated with S. aureus bacteria cells to yield a bacterial lawn after overnight culture. After bacterial inoculation and before culturing the plates, two identical titanium K-wires loaded with either 10 w/w % Lin, 10 w/w % Van, or 10 w/w % Dap alone, or in combination with Rif were placed in two separate areas on the plate. After culturing the plates at 37° C. for 24 hours, the antimicrobial activity of the eluded antibiotic(s) into the agar was measured as a zone of inhibition (diameter [mm]) of the bacterial growth around the K-wire.
Long-term efficacy of the antimicrobial activity was tested by storing electrospun pins at room temperature for 6 weeks, −20° C. for 6 weeks, and −80° C. for 8 months. Coated pins were protected from light during storage. These pins were then used in the same zone of inhibition assay as described hereinabove. These antimicrobial results were further confirmed with a two-week in vitro release study to determine release kinetics after storage.
Tryptic soy agar (TSA) bacterial plates were inoculated with S. aureus to yield a bacterial lawn after overnight culture. Before culturing the plates, two titanium K-wires each loaded with the same combination of antibiotics from each set were placed in two separate areas on the plate. After culturing at 37° C. for 24 hours, the zone of inhibition (ZOI) (diameter/mm) of bacterial growth were measured.

[1] = In vitro release of antibiotics from composite coatings on titanium K-wire implants; type: physicochemical; conditions: for release kinetics after storage: coated pins stored 6 weeks room temperature, 6 weeks −20° C. or 8 months frozen, vs fresh; for Day 1 release of Gentamicin: of total loading
Protocol: The release rate of the polymer composite film was measured by HPLC. Drug release studies were conducted using coated pins created with the same loading parameters as those used for later in vivo testing (10% (w/w) drug combinations) electrospun for 60 seconds at injection rates of 0.5 mL/h from each needle. Release rate of antibiotics from the composite polymer coating was characterized by placing coated pins in 200 μL pH 7.4 PBS buffer and incubating at 37° C. in an aluminum film-covered incubator to prevent possible light-induced drug degradation. Release media was changed at fixed time points over a period of two weeks and stored in a −20° C. freezer until analysis. Drug concentrations in release media for each day were determined via reverse-phase HPLC using a C-18 column in an Alliance HPLC system and Waters 2996 PDA detector. The mobile phase was a mixture of acetonitrile and water both mixed with 0.1% TFA acid, which was run at a gradient from (15%/85%) to (40%/60%) for a total runtime of 15 minutes per sample for the elution of Van/Rif and Lin/Rif drug loading groups. Elution of the Dap/Rif loading group was conducted using a mobile phase of (49%/51%) of acetonitrile and water both mixed with 0.1% TFA acid for a total run time of 11 minutes per sample. Concentrations of the drugs were quantified using wavelengths of 343 nm for Rif, 254 nm for Lin, 280 nm for Van and 223 nm for Dap using prepared standard curves for all three drugs. […] Quantification was performed through the derivatization of Gentamicin with ninhydrin at 95° C. for 15 minutes and detection with a Biotek Synergy2 plate reader.
Drug release studies were conducted using coated pins created with the same loading parameters as detailed above. Release kinetics of antibiotics from the composite coating were characterized by placing coated pins in 200 μL of phosphate buffer saline (PBS, pH 7.4) at 37° C. Release media was changed daily over a period of two weeks and stored at −20° C. until analysis. Drug concentrations in release media were measured on days 1, 2, 3, 5, 7, 10 and 14 using a Waters Alliance 2690 HPLC system (Waters Corporation, Milford, Mass.) equipped with an Accucore RP-MS C18 column (100 mm×2.1 mm; Thermo Fisher Scientific) and a Waters 2996 PDA detector. The elution was carried out with a mobile phase of water and acetonitrile both mixed with 0.1% TFA at a flow rate of 1 mL/min at ambient temperature using a linear gradient elution program of 85% water to […] in 15 minutes. Concentrations of the drugs were quantified using wavelengths for Van (280 nm), Lin (254 nm), Dap (224 nm) and Rif (263 nm).

[2] = In vivo release kinetics of ICG from PCL coating by fluorescence imaging; parameters: species or system mice; conditions: ICG loaded PCL coating on K-wire in mouse femur
Source text: FIG. 9A and FIG. 9B show in vivo release kinetics as measured by PCL coatings impregnated with a near-infrared (NIR) fluorescent dye Indocyanine green (ICG) as a surrogate for the antibiotic loaded coatings.
The near-infrared (NIR) fluorescence imaging dye indocyanine green (ICG) was used as a surrogate model for drug loading and release in an established mouse model (described in Example 4) to monitor the in vivo release kinetics from PCL coating (FIG. 9A and FIG. 9B). ICG loaded PCL was coated onto titanium K-wire (described in Example 1). The implants were surgically placed in a retrograde fashion with 1 mm protruding into the joint space of mice. The release of ICG was measured by its fluorescence intensity at different time points.

[3] = system: S. aureus bioluminescent strain Xen36; assay: Mouse model of prosthetic joint infection: in vivo bioluminescence imaging and CFU; parameters: species or system mice; conditions: intravenous prophylaxis 110 mg/kg at −1 and 16 hours
[4] = Staphylococcus aureus, read-out: MIC

## CO[C@H]1/C=C/O[C@@]2(C)Oc3c(C)c(O)c4c(O)c(c(/C=N/N5CCN(C)CC5)c(O)c4c3C2=O)NC(=O)/C(C)=C\C=C\[C@H](C)[C@H](O)[C@@H](C)[C@@H](O)[C@@H](C)[C@H](OC(C)=O)[C@@H]1C [Rif, Rifampin]
XEN36; [4]
  MIC: 0.5 µg/mL
S. aureus
  antimicrobial activity (zone of inhibition) after storage: no significant loss of antimicrobial activity
[1]; pins stored at −20° C.
  release of Rif out of the composite film coating after storage (reduced or not): not when the pins were stored at −20 °C
[1]; storage at room temperature for six weeks
  release of Rif out of the composite film coating after storage: reduced
[1]; tuned by PCL molecular weight or PCL layer thickness
  Rif remains above the MIC: 2 to 5 days

## CC1(C)C(/C=C/C=C/C=C/C=C2\N(CCCCS(=O)(=O)O)c3ccc4ccccc4c3C2(C)C)=[N+](CCCCS(=O)(=O)[O-])c2ccc3ccccc3c21 [ICG, indocyanine green]
[2]
  duration of ICG release: over two weeks
  peak dissolution of ICG: 1 days

## CC(=O)NC[C@H]1CN(c2ccc(N3CCOCC3)c(F)c2)C(=O)O1 [Lin, linezolid]
XEN36; [4]
  MIC: 2 µg/mL
S. aureus
  antimicrobial activity (zone of inhibition) after storage: no significant loss of antimicrobial activity
[1]
  release kinetics after storage: no difference in the release kinetics

## CN[C@H](CC(C)C)C(=O)N[C@H]1C(=O)N[C@@H](CC(N)=O)C(=O)N[C@H]2C(=O)N[C@H]3C(=O)N[C@H](C(=O)N[C@H](C(=O)O)c4cc(O)cc(O)c4-c4cc3ccc4O)[C@H](O)c3ccc(c(Cl)c3)Oc3cc2cc(c3O[C@@H]2O[C@H](CO)[C@@H](O)[C@H](O)[C@H]2O[C@H]2C[C@](C)(N)[C@H](O)[C@H](C)O2)Oc2ccc(cc2Cl)[C@H]1O [Van, vancomycin]
XEN36; [4]
  MIC: 0.5 µg/mL
S. aureus
  antimicrobial activity (zone of inhibition) after storage: no significant loss of antimicrobial activity
[3]
  BLI signals: decreased BLI signals
  clearance of infection (CFU from bone/joint tissue and implants): the infection was not cleared
[1]
  release kinetics after storage: no difference in the release kinetics

## Gentamicin
XEN36
  MIC: roughly 10 μg/mL
[1]; 50:50 PLGA
  Gentamicin release profile: sustained release
[1]; 75:25 PLGA
  Gentamicin release profile: only a burst release
[1]; controlled by polymer choice (PLA:PGA ratio of PLGA)
  release of Gentamicin above the MIC: 2 to 14 days
[1]; PLGA nanofibers alone
  Day 1 release of Gentamicin: 80%
[1]; PLGA nanofibers embedded in PCL film layer
  Day 1 release of Gentamicin: less than 45%
[1]; release from PLGA nanofibers of composite coating, FIG. 11A
  Gentamicin MIC concentration sustained: up to 14 days

## CCCCCCCCCC(=O)N[C@@H](Cc1c[nH]c2ccccc12)C(=O)N[C@H](CC(N)=O)C(=O)N[C@@H](CC(=O)O)C(=O)N[C@@H]1C(=O)NCC(=O)N[C@@H](CCCN)C(=O)N[C@@H](CC(=O)O)C(=O)N[C@H](C)C(=O)N[C@@H](CC(=O)O)C(=O)NCC(=O)N[C@H](CO)C(=O)N[C@@H]([C@H](C)CC(=O)O)C(=O)N[C@@H](CC(=O)c2ccccc2N)C(=O)O[C@@H]1C [Dap, daptomycin]
XEN36; [4]
  MIC: 0.25 µg/mL
S. aureus
  antimicrobial activity (zone of inhibition) after storage: no significant loss of antimicrobial activity
[1]
  release kinetics after storage: no difference in the release kinetics

Reference: patent US11135340B2, “Compositions and methods for preparation of composite polymer coatings on medical implants, and their use for co-delivery of multiple antimicrobial agents” (THE JOHNS HOPKINS UNIVERSITY, priority 2016, dated 2021)
